Consider 23 compounds from patent publication US12116358B2, “Substituted indoles and methods of use thereof” (EPIZYME, INC., priority 2018, dated 2024).

One experiment deals with T1, SETD2(1434-1711) (Homo sapiens, UniProt Q9BYW2).
T1 construct: SETD2 (1434-1711) Assay; catalogue N/A
T1 sequence (Q9BYW2 1434-1711): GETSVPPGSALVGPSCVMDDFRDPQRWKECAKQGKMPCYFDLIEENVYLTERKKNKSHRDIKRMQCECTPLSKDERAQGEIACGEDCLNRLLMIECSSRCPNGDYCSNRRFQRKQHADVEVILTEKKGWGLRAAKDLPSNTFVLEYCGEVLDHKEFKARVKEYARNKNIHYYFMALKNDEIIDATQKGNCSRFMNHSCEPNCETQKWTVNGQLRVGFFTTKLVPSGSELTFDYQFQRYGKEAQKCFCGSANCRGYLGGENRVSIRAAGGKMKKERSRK
Nature of the experiment: SETD2 (1434-1711) assay. The format is biochemical. The conditions noted are these: read-out: SETD2 (1434-1711).

A further experiment has as its system H3K36me3 in A549 cells. In words: In-Cell Western (ICW) assay of SETD2 inhibitors (A549 assay). It counts as cell-based, human. Particulars: A549 cells, read-out: SETD2 A549. Here is the method:
In-Cell Western (ICW) Assay of SETD2 Inhibitors (A549 Assay)
Representative Compounds of the Disclosure were tested in the A549 assay according the following protocol.
1. Reagents and Consumables:
Prepare plates with compounds. Seed A549 cells to the plates with compounds, 4,000 cells/well, 50 μl/well. Put the plates at room temperature on a non-vibrating surface for 20 minutes before placing in the incubator. Incubate the plate at 37° C. incubator with CO2 for 3 days. Remove plate from incubator and bring to room temperature. Blot media out of the plate and add 50 μL of ice cold 100% methanol. Incubate 30 minutes at room temperature. Remove methanol by aspiration. Wash 3× with PBST. Add 50 μL of Blocking Buffer+0.1% Tween 20. Incubate 1 hour. Remove Blocking Buffer, wash 3× with PBST. Add 20 μL of H3K36me3 (1:1000 dilution). […] Incubate overnight at 4° C. Wash plate 5× with PBS-T. Add 20 μL of DRAQ5 (1:1000) and IRDye 800CW Goat anti-Rabbit IgG (1:500). Incubate for 1 hour in the dark. Wash plate 5× with PBS-T. Wash plate 3× with water. Dry by blotting on paper towel, then centrifuge plate upside down on a thin layer of paper towels for 1 minute at 1000 rpm to remove excess reagent. Leave plate uncovered for ˜10 minutes out of direct light before reading. Read on Licor instrument.
4. Licor Instrument Settings:
Preset: Plate; Resolution: 84 μm; Quality: low; Focus offset: 4.0; 700 channel intensity: 2; and 800 channel intensity: 3.

The structures appear in SMILES notation. Where two headings read alike, the source gives them in different places. Some results are limits rather than exact numbers.

With `Cc1ccc(F)c2cc(C(=O)NC3CCCC(N4CCN5C(=O)N(C)CC5C4)C3)[nH]c12` (stereo not shown) [compound 1051], the IC50 on SETD2(1434-1711) stood at 10 nM; in the experiment with H3K36me3 in A549 cells it was 30 nM.

Consider `CC(=O)N1CCN([C@H]2CCC[C@@H](NC(=O)c3cc4c(F)ccc(C)c4[nH]3)C2)C[C@@H]1CO` [compound 1099], for which the figures for the IC50 at SETD2(1434-1711) and with H3K36me3 in A549 cells (Homo sapiens) were 10 nM and 100 nM, respectively.

Regarding `Cc1cccc(O)c1C(NC(=O)c1cc2cccc(C)c2[nH]1)C1CC1` (stereo not shown) [compound 492], the values for the IC50 on SETD2(1434-1711) and in the experiment with H3K36me3 in A549 cells (Homo sapiens) were above 50000 nM and 12500 nM, respectively.

As to `Cc1ccc(F)c2cc(C(=O)N[C@@H]3CCCC(N4CCN(CC(=O)N(C)C)CC4)C3)[nH]c12` (stereo partly shown) [compound 859], the results for the IC50 at SETD2(1434-1711) and in the experiment with H3K36me3 in A549 cells were 500 nM and 1900 nM, respectively.

As for `Cc1c(NC(=O)c2cc3c(F)ccc(C)c3[nH]2)cccc1N1CCN(C)CC1` [compound 320], the results for the IC50 at SETD2(1434-1711) and in the experiment with H3K36me3 in A549 cells (Homo sapiens) were 200 nM and 1400 nM, respectively.

As for `Cc1ccc(F)c2cc(C(=O)NC3CCCC(N4CCC(N(C)C(=O)C5COC5)C4)C3)[nH]c12` (stereo not shown) [compound 947], the values for the IC50 at SETD2(1434-1711) and in the experiment with H3K36me3 in A549 cells were 5500 nM and above 2000 nM, respectively.

With `Cc1ccc(F)c2cc(C(=O)Nc3cccc(N4CC(F)C(N(C)C)C4)c3)[nH]c12` (stereo not shown) [compound 63], the IC50 on SETD2(1434-1711) worked out at 20 nM; with H3K36me3 in A549 cells, 100 nM.

Consider `Cc1ccc(F)c2cc(C(=O)N[C@@H]3CCC[C@@H](N4CCN5C(=O)N(C)C[C@H]5C4)C3)[nH]c12` [compound 1128], for which the figures for the IC50 at SETD2(1434-1711) and in the experiment with H3K36me3 in A549 cells (Homo sapiens) were 300 nM and 1600 nM, respectively.

On to `Cc1ccc(F)c2cc(C(=O)NC3CCCC(N4CCC(N(C)C(=O)C(C)(C)O)C4)C3)[nH]c12` (stereo not shown) [compound 1145], for which the IC50 at SETD2(1434-1711) is 1800 nM; in the experiment with H3K36me3 in A549 cells it was above 2000 nM.

As to `Cc1cccc2cc(C(=O)NCC3CCCCC3N3CCOCC3)[nH]c12` (stereo not shown) [compound 508], the results for the IC50 at SETD2(1434-1711) and with H3K36me3 in A549 cells were 10400 nM and 15200 nM, respectively.

As for `CC(=O)N1CCN([C@H]2CCC[C@@H](NC(=O)c3cc4c(F)ccc(C)c4[nH]3)C2)C[C@H]1C(F)(F)F` [compound 1070], the IC50 on SETD2(1434-1711) and with H3K36me3 in A549 cells (Homo sapiens) was 10 nM in each case.

Turning to `Cc1ccc(F)c2cc(C(=O)Nc3cccc(C4CCOCC4)c3)[nH]c12` [compound 101], the IC50 on SETD2(1434-1711) is 50 nM; with H3K36me3 in A549 cells, 200 nM.

For the compound `Cc1cccc2cc(C(=O)NCC(C)c3ccccc3N3CCOCC3)[nH]c12` (stereo not shown) [compound 483], the IC50 turned out to be 4100 nM at SETD2(1434-1711) and 10300 nM in the experiment with H3K36me3 in A549 cells.

As to `Cc1ccc(F)c2cc(C(=O)Nc3cc(F)cc(N4CCC(N(C)C)C4=O)c3)[nH]c12` (stereo not shown) [compound 3], the values for the IC50 on SETD2(1434-1711) and with H3K36me3 in A549 cells were 4 nM and 30 nM, respectively.

On to `Cc1ccc(F)c2cc(C(=O)NC3CCCC(N4CCC(N5CCOC5=O)C4)C3)[nH]c12` (stereo not shown) [compound 959], for which the IC50 on SETD2(1434-1711) was 2300 nM; in the experiment on H3K36me3 in A549 cells, above 2000 nM.

Turning to `Cc1cc(CCN2CCN(C)CC2)cnc1C(Cc1ccccc1)NC(=O)c1cc2c(F)ccc(C)c2[nH]1` (stereo not shown) [compound 258], the values for the IC50 on SETD2(1434-1711) and with H3K36me3 in A549 cells (Homo sapiens) were 40 nM and 600 nM, respectively.

`Cc1ccc(F)c2cc(C(=O)Nc3cccc(-c4ncc[nH]4)c3)[nH]c12` [compound 428]: the IC50 stood at 1000 nM on SETD2(1434-1711) and 4100 nM with H3K36me3 in A549 cells (Homo sapiens).

`Cc1ccc(F)c2cc(C(=O)Nc3cc(N4CCN(C)CC4)ccn3)[nH]c12` [compound 612]: the IC50 on SETD2(1434-1711) was above 50000 nM; in the experiment with H3K36me3 in A549 cells (Homo sapiens) it was above 25000 nM.

Consider `Cc1ccc(F)c2cc(C(=O)Nc3cccc([C@H]4CC[C@H](N(C)C)C4)c3)[nH]c12` [compound 264], for which the values for the IC50 at SETD2(1434-1711) and with H3K36me3 in A549 cells (Homo sapiens) were 20 nM and 700 nM, respectively.

Consider `Cc1ccc(F)c2cc(C(=O)Nc3cccc(-c4cn[nH]c4N)c3)[nH]c12` [compound 397], for which the IC50 turned out to be 500 nM on SETD2(1434-1711) and 2400 nM with H3K36me3 in A549 cells (Homo sapiens).

Turning to `Cc1ccc(F)c2cc(C(=O)Nc3cccc(OCCN(C)C)c3)[nH]c12` [compound 323], the IC50 at SETD2(1434-1711) worked out at 70 nM; in the experiment with H3K36me3 in A549 cells (Homo sapiens) it was 1500 nM.

In the case of `Cc1cccc2cc(C(=O)N[C@@H]3CCN(C(=O)CCCN)C[C@@H]3C)[nH]c12` [compound 588], the IC50 is 40400 nM on SETD2(1434-1711) and above 25000 nM with H3K36me3 in A549 cells (Homo sapiens).

Turning to `Cc1ccc(F)c2cc(C(=O)Nc3cc(F)cc([C@H]4CC[C@H](N(C)C)CC4)c3)[nH]c12` [compound 313], the IC50 on SETD2(1434-1711) worked out at 30 nM; in the experiment with H3K36me3 in A549 cells (Homo sapiens) it was 1300 nM.
